Data on one compound can be found in US9261498B2, “Biomarker for sensitivity to mTOR inhibitor therapy in kidney cancer” (The Regents of the University of California, priority 2005, dated 2016).

Entries after “also recorded” stand apart in the source; their conditions may differ.

In one assay the test system is SN12C-CSCG cells. The assay can be described thus: In vitro growth (cell counts), parental empty-vector cells. The format is cell-based, human. Conditions: 1 and 10 nM CCI-779, day 5, 10% serum; b106 at 10 nM. The procedure:
(§1) FIGS. 1A-1E. Effects of VHL knockdown on sensitivity to CCI-779. (a) Immunoblotting of lysates derived from shRNA and control (empty vector, V) in SN12C, using antibodies against VHL (both isoforms detected), HIF-1α, HIF-2α, GLUT-1, CA-IX and β-Actin (as a loading control). (b) SN12C-CSCG and SN12C-VHLshRNA cells (1×10^5) were cultured in 10% serum rich media, in the presence of vehicle, 1 or 10 nM of CCI-779 for 5 days. Cell growth was measured by cell counts (n=3). […] (c) SN12C-CSCG (C1) and SN12C-CSCG shVHL RNA (C2) cells were injected into SCID mice at a dose of 1×10^6 cells per mouse (n=30). […] Phosphorylated-S6 protein in SN12C-CSCG and SN12C-VHL shRNA xenograft tumors treated with vehicle or 0.1 mg/kg of CCI-779 was measured by immunoblot C3 and C4). […]
(§2) For in vitro experiments, cells (5×10^4) were plated and treated with 1 and 10 nM CCI-779 (kind gift of J. Gibbons, Wyeth) or vehicle (ethanol). On day 5-post treatment, cells were trypsinized, resuspended in DMEM with 10% FBS and counted using the VI CELL counter (Beckman Coulter), according to the manufacturer's instructions. […] In vivo tumorigenicity was measured by injection of 5×10^5 SN12C-CSCG, ACHN-CSCG, SN12C-CSCG-VHLshRNAi, ACHN-CSCG-VHLshRNAi, SN12C-CSCG-VHLshRNAi-pBABE, SN12C-CSCG-VHLshRNAi-pBABE-HA-HIF-2α (P405A; P531A) cells in 100 μl of Matrigel (Collaborative Biomedical) subcutaneously into the flanks of SCID mice. […]

A further assay has as its system ACHN-CSCG cells. The assay is described as above. It is filed as cell-based, human. Conditions: 10 nM CCI-779, day 5. The procedure:
as §1, §2

Consider `CO[C@H]1C[C@@H]2CC[C@@H](C)[C@@](O)(O2)C(=O)C(=O)N2CCCC[C@H]2C(=O)O[C@H]([C@H](C)C[C@@H]2CC[C@@H](OC(=O)C(C)(CO)CO)[C@H](OC)C2)CC(=O)[C@H](C)/C=C(\C)[C@@H](O)[C@@H](OC)C(=O)[C@H](C)C[C@H](C)/C=C/C=C/C=C/1C` [CCI-779], for which the cell growth entry with SN12C-CSCG cells is “not affected; also recorded: not sensitive”; in the assay with ACHN-CSCG cells it was “not affected”.
